# Where two headings read alike, the source gives them in different places.
# Assays:
# [1] = test system: HT-29; experiment: In vitro tumor cell cytotoxicity (MTT colorimetric growth inhibition); format: cell-based; conditions: Homo sapiens
# Experimental: (§1) The compounds of the present invention were tested for in vitro cytotoxic activity against the tumor lines A549 […], HT-29 […], B16F10 (mouse melanoma) and P-388 (mouse leukemia). Concentrations of 50% growth inhibition (IC50 's) were measured in a colorimetric assay for cytotoxic activity against cultured cells according to the protocol described below:
# (§2) A three-day microtiter assay was used to measure the growth inhibition of cultured cells exposed to a range of drug concentrations. Metabolic activity, and thus the continued survival of cells exposed to the test compounds, was measured by the cells' ability to reduce the tetrazolium dye, MTT (3-(4,5-dimethyl-thiazol-2-yl-2,5-diphenyltetrazolium bromide) to a quantifiable colored end product, which absorbs at 570 nm in the visible spectrum.
# (§3) Test compounds were dissolved in dimethyl sulfoxide (DMSO) and diluted, first with Earle's Balanced Salt Solution followed by culture medium, to twice the highest concentration of compound to be tested. From this concentrated stock, twofold serial dilutions were prepared in 96-well microtiter trays, each well containing twice the desired final concentration of compound. Each concentration was tested in triplicate and compared to triplicate drug-free controls.
# (§4) The cells were grown in the same medium used for diluting the compounds and then harvested using trypsinization. This involved removing the medium by aspiration; rinsing the cell monolayer twice with Earle's Balanced Salt Solution; adding trypsin (0.05%)/EDTA (0.53 mM; for each 25 cm^2, approximately 0.2 mL), tilting to cover the monolayer, and then withdrawing trypsin leaving only a thin film of solution; incubating at room temperature until the cell monolayers detached (as determined by visual and/or microscopic observation); adding medium containing fetal calf serum to stop the action of the trypsin and resuspend the cells; triturating to aid dissociation of cell clumps; and determining the number of cells per milliliter by electronic cell counter (e.g. Coulter Counter) or by mixing an aliquot of cell suspension with Trypan Blue (0.4% in normal saline) and counting the viable cells using a hemacytometer.
# (§5) After harvesting and determination of viable cell counts, cell density was adjusted to 25,000 cells/mL. Inoculum (0.1 mL) containing the cells was then added to each well for a final concentration of 2,500 cells per well. Addition of the inoculum diluted the test compounds to the desired final concentration.
# (§6) Microtiter trays were then incubated for three days at 36 ° C. in a humidified atmosphere containing 5% carbon dioxide. After three days, 20 microtiters of 5 mg/mL MTT in phosphate-buffered saline solution were added to each well. Trays were returned to the incubator for two to four hours to allow the surviving cells to reduce the dye. Medium and unreduced dye were removed by aspiration. DMSO was added to each well to dissolve the water-insoluble, colored end product of the dye reduction so that it could be measured spectrophotometrically at 570 nm. The IC50 was determined as the concentration of compound tested required to reduce the absorbance at 570 nm to 50% of non-drug treated control values.
# [2] = test system: A549; experiment: as above; format: cell-based; conditions: Homo sapiens
# Experimental: as §1, §2, §3, §4, §5, §6
# [3] = test system: P388; experiment: as above; format: cell-based, mouse; conditions: P388, 72 h
# Experimental: as §1, §2, §3, §4, §5, §6
# [4] = test system: B16F10; experiment: as above; format: cell-based, mouse; conditions: B16-F10, 72 h
# Experimental: as §1, §2, §3, §4, §5, §6
# [5] = test system: advanced breast and ovarian cancers; conditions: cited from earlier work
# [6] = test system: a number of other tumor types; conditions: preliminary investigations; cited from earlier work
Compound,"IC50 ([1]; HT-29, 72 h) [ng/mL]","IC50 ([2]; A549, 72 h) [ng/mL]",IC50 ([3]; Mus musculus) [ng/mL],IC50 ([4]; Mus musculus) [ng/mL],"IC50 ([1]; 72 h, HT-29, three-day microtiter assay, MTT, 570 nm, read-out: IC50) [ng/mL]","IC50 ([2]; 72 h, A549, three-day microtiter assay, MTT, 570 nm, read-out: IC50) [ng/mL]","IC50 ([3]; P-388 (mouse leukemia), three-day microtiter assay, MTT, 570 nm, read-out: IC50) [ng/mL]","IC50 ([4]; B16F10 (mouse melanoma), three-day microtiter assay, MTT, 570 nm, read-out: IC50) [ng/mL]",effectiveness in clinical trials [5],activity against other tumor types [6]
"CC(=O)O[C@@H]1C2=C(C)[C@@H](OC(=O)[C@H](O)[C@@H](NC(=O)c3ccccc3)c3ccccc3)C[C@@](O)([C@@H](OC(=O)c3ccccc3)[C@@H]3[C@]4(OC(C)=O)CO[C@@H]4C[C@H](C)[C@@]13C=O)C2(C)C [Example 4, β-Benzoylamino-α-hydroxybenzenepropanoic acid 4,9-bis(acetyloxy)-2-benzoyloxy-8-formyl-1.2.3.4.5.6.7.8.10.13.14-undecahydro-1-hydroxy-7.14.14.17-tetramethyl-1.10-m,ethano-20H-cyclonona[2.3]benz[1.2-b]oxet-12-yl ester]",76,17,32,45,,,,,,
"CC(=O)O[C@@H]1C2=C(C)[C@@H](OC(=O)[C@H](O)[C@@H](NC(=O)OC(C)(C)C)c3ccccc3)C[C@@](O)([C@@H](OC(=O)c3ccccc3)[C@@H]3[C@]4(OC(C)=O)CO[C@@H]4C[C@H](C)[C@@]13C=O)C2(C)C [Example 3, 8-tert-Butyloxycarbonylamino-α-hydroxybenzenepropanoic acid 4,9-bis(acetyloxy)-2-benzoyloxy-8-formyl-1.2.3.4.5.6.7.8.10.13.14-undecahydro-1-hydroxy-7.14.14.17-tetramethyl-1.10-methano-20H-cyclonona[2.3]benz[1.2.b]oxet-12-yl ester]",,,,,5.4,9.8,8.3,4.6,,
"CC(=O)O[C@H]1C(=O)[C@@]2(C)[C@H]([C@H](OC(=O)c3ccccc3)[C@]3(O)C[C@H](OC(=O)[C@H](O)[C@@H](NC(=O)c4ccccc4)c4ccccc4)C(C)=C1C3(C)C)[C@]1(OC(C)=O)CO[C@@H]1C[C@@H]2O [Paclitaxol, Paclitaxel]",2.5,3.4,9.6,3.1,,,,,effective against advanced breast and ovarian cancers,promising activity against a number of other tumor types

# From patent US5468769A, “Paclitaxel derivatives” (Abbott Laboratories, priority 1993, dated 1995)
